According to US12692254B2, “Benzimidazole inhibitors of PAD enzymes” (BRISTOL-MYERS SQUIBB COMPANY, priority 2018, dated 2026):

Target: human PAD4 (hPAD4) (Homo sapiens, UniProt Q9UM07)
Experiment: RFMS human PAD4 functional assay (rapid-fire mass spectrum)
Assay type: biochemical
Settings: 5 nM hPAD4 enzyme, 250 μM BAEE, 50 μM Calcium; 30 min preincubation, 90 min reaction at 37° C.
In short: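 PAD4 (10 nM) preincubated 30 min with compound (top final 50 μM), then BAEE substrate added in pH 7.5 HEPES buffer with DTT, 50 μM calcium, TPEN; 90 min at 37° C. After TCA quench, citrulline derivatized with phenyl glyoxal (4 mM final, 30 min, 37° C) and quantified by RapidFire MS against internal standard.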

Chain of human PAD4 (hPAD4) (Q9UM07 whole entry): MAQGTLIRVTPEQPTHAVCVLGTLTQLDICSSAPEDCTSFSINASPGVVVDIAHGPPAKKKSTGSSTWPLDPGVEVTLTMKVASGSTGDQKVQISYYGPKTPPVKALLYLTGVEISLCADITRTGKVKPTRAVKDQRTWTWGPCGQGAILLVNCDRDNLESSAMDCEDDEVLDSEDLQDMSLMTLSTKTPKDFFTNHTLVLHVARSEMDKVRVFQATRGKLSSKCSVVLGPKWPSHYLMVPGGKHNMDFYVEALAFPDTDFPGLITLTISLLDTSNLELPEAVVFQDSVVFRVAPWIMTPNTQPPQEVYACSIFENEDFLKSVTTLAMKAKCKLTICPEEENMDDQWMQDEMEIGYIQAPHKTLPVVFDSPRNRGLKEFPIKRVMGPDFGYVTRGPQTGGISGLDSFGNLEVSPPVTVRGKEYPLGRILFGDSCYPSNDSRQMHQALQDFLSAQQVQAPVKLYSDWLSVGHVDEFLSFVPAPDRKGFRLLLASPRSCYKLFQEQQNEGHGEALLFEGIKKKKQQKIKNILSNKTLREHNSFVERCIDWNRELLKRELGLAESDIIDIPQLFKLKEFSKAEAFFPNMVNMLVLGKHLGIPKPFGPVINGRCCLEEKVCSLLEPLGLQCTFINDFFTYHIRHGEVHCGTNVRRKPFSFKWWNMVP

IC50 [nM] | Compound
298 | COc1cc(C(=O)N2C[C@H](N)C[C@@H](F)C2)cc2nc(-c3cc4ccccc4n3CC3CC3)n(Cc3cc(C)nn3C)c12 [Example 276, (3R,5R)-1-{2-[1-(cyclopropylmethyl)-1H-indol-2-yl]-1-[(1,3-dimethyl-1H-pyrazol-5-yl)methyl]-7-methoxy-1H-1,3-benzodiazole-5-carbonyl}-5-fluoropiperidin-3-amine]
319 | COc1cc(C(=O)N2C[C@H](N)C[C@@H](F)C2)cc2nc(-c3cc4ccccc4n3CC3CC3)n(Cc3ccnn3C)c12 [Example 277, (3R,5R)-1-{2-[1-(cyclopropylmethyl)-1H-indol-2-yl]-7-methoxy-1-[(1-methyl-1H-pyrazol-5-yl)methyl]-1H-1,3-benzodiazole-5-carbonyl}-5-fluoropiperidin-3-amine]
460 | COc1cc(C(=O)N2C[C@H](N)C[C@@H](F)C2)cc2nc(-c3cc4ccccc4n3CC3CC3)n(Cc3ccon3)c12 [Example 278, (3R,5R)-1-{2-[1-(cyclopropylmethyl)-1H-indol-2-yl]-7-methoxy-1-[(1,2-oxazol-3-yl)methyl]-1H-1,3-benzodiazole-5-carbonyl)-5-fluoropiperidin-3-amine]
491 | COc1cc(C(=O)N2C[C@H]3CC[C@@H]2[C@@H]3N)cc2nc(-c3cc4ccccc4n3CC3CC3)n(CCN3CCNC3=O)c12 [Example 279, 1-(2-{5-[(1R,4R,7R)-7-amino-2-azabicyclo[2.2.1]heptane-2-carbonyl]-2-[1-(cyclopropylmethyl)-1H-indol-2-yl]-7-methoxy-benzodiazol-1-yl}ethyl)imidazolidin-2-one]
555 | COc1cc(C(=O)N2C[C@H]3CC[C@@H]2[C@@H]3N)cc2nc(-c3cc4ccccc4n3CC3CC3)n(Cc3ccccn3)c12 [Example 280, (1R,4R,7R)-2-{2-[1-(cyclopropylmethyl)-1H-indol-2-yl]-7-methoxy-1-[(pyridin-2-yl)methyl]-1H-1,3-benzodiazole-5-carbonyl}-2-azabicyclo[2.2.1]heptan-7-amine]
780 | COc1cc(C(=O)N2C[C@H](N)C[C@@H](F)C2)cc2nc(-c3cc4ccccc4n3CC3CC3)n(Cc3ccccc3)c12 [Example 282, (3R,5R)-1-{1-benzyl-2-[1-(cyclopropylmethyl)-1H-indol-2-yl]-7-methoxy-1H-1,3-benzodiazole-5-carbonyl}-5-fluoropiperidin-3-amine]
895 | COc1cc(C(=O)N2C[C@H](N)C[C@@H](F)C2)cc2nc(-c3cc4ccccc4n3CC3CC3)n(CC3CCC(=O)N3)c12 (stereo partly drawn) [Example 283, 5-({5-[(3R,5R)-3-amino-5-fluoropiperidine-1-carbonyl]-2-[1-(cyclopropylmethyl)-1H-indol-2-yl]-7-methoxy-1H-1,3-benzodiazol-1-yl}methyl)pyrrolidin-2-one]
925 | COC(=O)NCCn1c(-c2cc3cccnc3n2CC2CC2)nc2cc(C(=O)N3C[C@H]4CC[C@@H]3[C@@H]4N)cc(OC)c21 [Example 284, methyl N-(2-{5-[(1R,4R,7R)-7-amino-2-azabicyclo[2.2.1]heptane-2-carbonyl]-2-[1-(cyclopropylmethyl)-1H-pyrrolo[2,3-b]pyridin-2-yl]-7-methoxy-1H-1,3-benzodiazol-1-yl}ethyl)carbamate]
1020 | COc1cc(C(=O)N2C[C@H](N)C[C@@H](F)C2)cc2nc(-c3cc4ccccc4n3CC3CC3)n(Cc3csc(C)n3)c12 [Example 285, (3R,5R)-1-{2-[1-(cyclopropylmethyl)-1H-indol-2-yl]-7-methoxy-1-[(2-methyl-1,3-thiazol-4-yl)methyl]-1H-1,3-benzodiazote-5-carbonyl}-5-fluoropiperidin-3-amine]
1190 | COc1cc(C(=O)N2C[C@H]3CC[C@@H]2[C@@H]3N)cc2nc(-c3cc4cccnc4n3CC3CC3)n(CCNS(C)(=O)=O)c12 [Example 286, N-(2-{5-[(1R,4R,7R)-7-amino-2-azabicyclo[2.2.1]heptane-2-carbonyl]-2-[1-(cyclopropylmethyl)-1H-pyrrolo[2,3-b]pyridin-2-yl]-7-methoxy-1H-1,3-benzodiazol-1-yl}ethyl)methanesulfonamide]
1230 | COc1cc(C(=O)N2C[C@H](N)C[C@@H](F)C2)cc2nc(-c3cc4ccccc4n3CC3CC3)n(Cc3ccncc3)c12 [Example 287, (3R,5R)-1-{2-[1-(cyclopropylmethyl)-1H-indol-2-yl]-7-methoxy-1-[(pyridin-4-yl)methyl]-1H-1,3-benzodiazole-5-carbonyl}-5-fluoropiperidin-3-amine]
1280 | COc1cc(C(=O)N2CC3(CCCNC3)C2)cc2nc(-c3cc4ccccc4n3CC3CC3)n(Cc3cnn(C)c3)c12 [Example 288, 2-{2-[1-(cyclopropylmethyl)-1H-indol-2-yl]-7-methoxy-1-[(1-methyl-1H-pyrazol-4-yl)methyl]-1H-1,3-benzodiazole-5-carbonyl}-2,6-diazaspiro[3.5]nonane]
1290 | COc1cc(C(=O)N2CC3CCC2[C@@H]3N)cc2nc(-c3cc4cccnc4n3CC3CC3)n(CCNC(C)=O)c12 (stereo partly drawn) [Example 289, N-(2-{5-[(1R,4R,7R)-7-amino-2-azabicyclo[2.2.1]heptane-2-carhonyl]-2-[1-(cyclopropylmethyl)-1H-pyrrolo[2,3-b]pyridin-2-yl]-7-methoxy-1H-1,3-benzodiazol-1-yl}ethyl)acetamide]
1590 | COc1cc(C(=O)N2CC3CCC2[C@@H]3N)cc2nc(-c3cc4ccccc4n3CC3CC3)n(CC3CCS(=O)(=O)C3)c12 (stereo partly drawn) [Example 290, ((7R)-7-amino-2-azabicyclo[2.2.1]heptan-2-yl)(2-(1-(cyclopropylmethyl)-1H-indol-2-yl)-1-((1,1-dioxidotetrahydrothiophen-3-yl)methyl)-7-methoxy-1H-benzo[d]imidazol-5-yl)methanone]
1910 | COc1cc(C(=O)N2CC(CN)C2)cc2nc(-c3cc4ccccc4n3CC3CC3)n(Cc3cnn(C)c3)c12 [Example 291, (1-{2-[1-(cyclopropylmethyl)-1H-indol-2-yl]-7-methoxy-1-[(1-methyl-1H-pyrazol-4-yl)methyl]-1H-1,3-benzodiazole-5-carbonyl}azetidin-3 yl)methanamine]
2060 | COc1cc(C(=O)N2CCC[C@@H](N)C2)cc2nc(-c3cc4cccnc4n3CC3CC3)n(CCNS(C)(=O)=O)c12 [Example 292, N-(2-{5-[(3R)-3-aminopiperidine-1-carbonyl]-2-[1-(cyclopropylmethyl)-1H-pyrrolo[2,3-b]pyridin-2-yl]-7-methoxy-1H-1,3-benzodiazol-1-yl}ethyl)methanesulfonamide]
2660 | COc1cc(C(=O)N2C[C@H](N)C[C@@H](F)C2)cc2nc(-c3cc4ccccc4n3CC3CC3)n(Cc3ccccn3)c12 [Example 293, (3R,5R)-1-{2-[1-(cyclopropylmethyl)-1H-indol-2-yl]-7-methoxy-1-[(pyridin-2-yl)methyl]-1H-1,3-benzodiazole-5-carbonyl}-5-fluoropiperidin-3-amine]
456 | COc1cc(C(=O)N2CC3CCC2[C@@H]3N)cc2nc(-c3cc4cccnc4n3CC3CC3)n([C@H]3C[C@@H](C(N)=O)C3)c12 (stereo partly drawn) [Example 294, (1s,3s)-3-{5-[(1R,4R,7R)-7-amino-2-azabicyclo[2.2.1]heptane-2-carbonyl]-2-[1-(cyclopropylmethyl)-1H-pyrrolo[2,3-b]pyridin-2-yl]-7-methoxy-1H-1,3-benzodiazol-1-yl}cyclobutane-1-carboxamide]
282 | COc1cc(C(=O)N2CC3CCC2[C@@H]3N)cc2nc(-c3cc4cccnc4n3CC3CC3)n([C@H]3C[C@@H](N)C3)c12 (stereo partly drawn) [Example 295, (1R,4R,7R)-2-{2-[1-(cyclopropylmethyl)-1H-pyrrolo[2,3-b]pyridin-2-yl]-7-methoxy-1-[(1s,3s)-3-aminocyclobutyl]-1H-1,3-benzodiazole-5-carbonyl}-2-azabicyclo[2.2.1]heptan-7-amine]
582 | COC(=O)N[C@H]1C[C@H](n2c(-c3cc4cccnc4n3CC3CC3)nc3cc(C(=O)N4CC5CCC4[C@@H]5N)cc(OC)c32)C1 (stereo partly drawn) [Example 296, methyl N-[(1r,3r)-3-{5-[(1R,4R,7R)-7-amino-2-azabicyclo[2.2.1]heptane-2-carbonyl]-2-[1-(cyclopropylmethyl)-1H-pyrrolo[2,3-b]pyridin-2-yl]-7-methoxy-1H-1,3-benzodiazol-1-yl}cyclobutyl]carbamate]
2100 | COc1cc(C(=O)N2CC3CCC2[C@@H]3N)cc2nc(-c3cc4cccnc4n3CC3CC3)n([C@H]3C[C@@H](NS(C)(=O)=O)C3)c12 (stereo partly drawn) [Example 297, N-[(1s,3s)-3-{5-[(1R,4R,7R)-7-amino-2-azabicyclo[2.2.1]heptane-2-carbonyl]-2-[1-(cyclopropylmethyl)-1H-pyrrolo[2,3-b]pyridin-2-yl]-7-methoxy-1H-1,3-benzodiazol-1-yl}cyclobutyl]methanesulfonamide]
331 | COc1cc(C(=O)N2CC3CCC2[C@@H]3N)cc2nc(-c3cc4cccnc4n3CC3CC3)n([C@H]3C[C@H](NS(C)(=O)=O)C3)c12 (stereo partly drawn) [Example 298, N-[(1r,3r)-3-{5-[(1R,4R,7R)-7-amino-2-azabicyclo[2.2.1]heptane-2-carbonyl]-2-[1-(cyclopropylmethyl)-1H-pyrrolo[2,3-b]pyridin-2-yl]-7-methoxy-1H-1,3-benzodiazol-1-yl}cyclobutyl]methanesulfonamide]
603 | COc1cc(C(=O)N2CC3CCC2[C@@H]3N)cc2nc(-c3cc4cccnc4n3CC3CC3)n([C@H]3C[C@H](NC(=O)c4cc[nH]c(=O)c4)C3)c12 (stereo partly drawn) [Example 299, 2-oxo-N-[(1r,3r)-3-{5-[(1R,4R,7R)-7-amino-2-azabicyclo[2.2.1]heptane-2-carbonyl]-2-[1-(cyclopropylmethyl)-1H-pyrrolo[2,3-b]pyridin-2-yl]-7-methoxy-1H-1,3-benzodiazol-1-yl}cyclobutyl]-1,2-dihydropyridine-4-carboxamide]
